Measurements from US12065426B2, “Crystalline form of nilotinib hydrochloride, process for its preparation and pharmaceutical composition containing the same” (Laurus Labs Limited, priority 2018, dated 2024).
Like-named read-outs stand apart in the source and are kept apart here.

What was measured:
[1] = Saturation solubility studies in various mediums; conditions: for solubility: 25 °C, thermodynamic from solid
Method: Saturation solubility studies were conducted in various mediums for nilotinib hydrochloride Form L of the present invention and nilotinib hydrochloride monohydrate Form B (U.S. Pat. No. 8,415,363).

[2] = Thermogravimetric analysis (TGA) / loss on drying; type: physicochemical; conditions: for Thermogravimetric (weight loss %): 10° C./minute, RT to 80° C.
Method: Thermogravimetry analysis (TGA) data in the present invention was acquired using TA instruments TGA Q500 thermogravimetric analyser with universal Analysis 2000 software using the following conditions; Heating rate: 10° C./min; Temperature range: 28±2° C.-250° C.; Nitrogen flow: 60 mL/minute.

[3] = from table 22 of U.S. Pat. No. 8,415,363, cited from earlier work
[4] = Chemical and polymorphic stability study at different storage conditions (HPLC, XRD); type: physicochemical; design: key to 5-Methyl isomer (Imp-4) / 4-Ethyl analogue (Imp-5) / Any unspecified impurity / Total Impurities / Methyl ester impurity (Imp-2) / Acid impurity (Imp-1): ND: Not detected; BDRL: Below disregard limit
Source text: Nilotinib hydrochloride Form L is packed in a transparent Low density polyethylene (LDPE) bag with a strip seal along with nitrogen filling, which is again kept in a second transparent low density polyethylene bag with strip seal. The LDPE bag is kept in to a triple laminated sunlight barrier with heat seal followed by in a high density polyethylene container and well closed.
Alternatively, Nilotinib hydrochloride Form L is packed in a HM LDPE bag in nitrogen atmosphere, fill the bag with nitrogen and seal it with vacuum sealer. Place this bag in another HM LDPE bag, fill with nitrogen, keep one silica gel packet between two bags and seal the bag with vacuum sealer. Place this in a triple laminated sunlight barrier bag, seal the bag with vacuum sealer; and finally kept it in a HDPE container.
The Nilotinib hydrochloride Form L was analysed using High Performance Liquid Chromatography (“HPLC”) with the conditions as tabulated below: […]

[5] = Dynamic vapour sorption (DVS); type: physicochemical
Method: Dynamic vapour sorption (DVS) data in the present invention was acquired using TA instruments TA Q5000SA Dynamic vapour sorption analyser with Universal Analysis 2000 software under following parameters; Sample was initially equilibrated at 0% RT for 120 mins; humidity range: 10 to 90%; humidity step size: 10%; Equilibration condition: change in mass less than 0.01% within 5 mins.

[6] = Variable temperature powder X-ray diffraction (VT-PXRD); type: physicochemical; conditions: 25-300° C., heating rate 10° C./mins

Cc1cn(-c2cc(NC(=O)c3ccc(C)c(Nc4nccc(-c5cccnc5)n4)c3)cc(C(F)(F)F)c2)cn1.Cl.O [Form B, reference compound]
Saturation solubility ([1]; 0.01N HCl, approximately at 25° C.): 80 µg/mL | Saturation solubility ([1]; 0.1N HCl, approximately at 25° C.): 940 µg/mL | Saturation solubility ([1]; Ethanol, approximately at 25° C.): 3690 µg/mL | Saturation solubility ([1]; Isopropanol, approximately at 25° C.): 1930 µg/mL | Saturation solubility ([1]; Phosphate buffer, pH 6.8, approximately at 25° C.): Below detection | Saturation solubility ([1]; Water, approximately at 25° C.): 170 µg/mL | Thermogravimetric (weight loss %) [2]: 0.91 (RT to 80° C.) % | Loss on drying ([3]; 30° C.-100° C.): 1.00% | Loss on drying ([3]; 100° C.-220° C.): 3.02%

Cc1cn(-c2cc(NC(=O)c3ccc(C)c(Nc4nccc(-c5cccnc5)n4)c3)cc(C(F)(F)F)c2)cn1.Cl [Form L, 4-methyl-N-[3-(4-methyl-1H-imidazol-1-yl)-5-(trifluoromethyl)phenyl]-3-[[4-(3-pyridinyl)-2-pyrimidinyl]amino]-benzamide hydrochloride]
solubility ([1]; 0.01N HCl, simulated gastric fluid): 170 µg/mL | solubility ([1]; 0.1N HCl, simulated gastric fluid): 1860 µg/mL | solubility ([1]; ethanol, organic solvent or mixture): 16300 µg/mL | solubility ([1]; isopropanol, organic solvent or mixture): 2740 µg/mL | solubility ([1]; phosphate buffer, pH 6.8, aqueous buffer): 20 µg/mL | Solubility compared to Form B ([1]; various mediums): better solubility | solubility ([1]; water): 160 µg/mL | 4-Ethyl analogue (Imp-5) ([4]; 25 ± 2° C./60 ± 5% RH, 2 month): BDRL | 5-Methyl isomer (Imp-4) ([4]; 25 ± 2° C./60 ± 5% RH, 2 month): BDRL | Any unspecified impurity ([4]; 25 ± 2° C./60 ± 5% RH, 2 month): BDRL | Description ([4]; 25 ± 2° C./60 ± 5% RH, 2 month): Slightly yellow | Solid form by XRD ([4]; 25 ± 2° C./60 ± 5% RH, 2 month): Complies | Total Impurities ([4]; 25 ± 2° C./60 ± 5% RH, 2 month): BDRL | 4-Ethyl analogue (Imp-5) ([4]; 25 ± 2° C./60 ± 5% RH, Initial): BDRL | Any unspecified impurity ([4]; 25 ± 2° C./60 ± 5% RH, Initial): BDRL | Description ([4]; 25 ± 2° C./60 ± 5% RH, Initial): Slightly yellow | Solid form by XRD ([4]; 25 ± 2° C./60 ± 5% RH, Initial): Complies | Total Impurities ([4]; 25 ± 2° C./60 ± 5% RH, Initial): BDRL | 4-Ethyl analogue (Imp-5) ([4]; 40 ± 2° C./75 ± 5% RH, 1 month): BDRL | 5-Methyl isomer (Imp-4) ([4]; 40 ± 2° C./75 ± 5% RH, 1 month): BDRL | Acid impurity (Imp-1) ([4]; 40 ± 2° C./75 ± 5% RH, 1 month): BDRL | Any unspecified impurity ([4]; 40 ± 2° C./75 ± 5% RH, 1 month): BDRL | Description ([4]; 40 ± 2° C./75 ± 5% RH, 1 month): Slightly yellow | Methyl ester impurity (Imp-2) ([4]; 40 ± 2° C./75 ± 5% RH, 1 month): BDRL | Solid form by XRD ([4]; 40 ± 2° C./75 ± 5% RH, 1 month): Complies | Total Impurities ([4]; 40 ± 2° C./75 ± 5% RH, 1 month): BDRL | 4-Ethyl analogue (Imp-5) ([4]; 40 ± 2° C./75 ± 5% RH, 2 month): BDRL | 5-Methyl isomer (Imp-4) ([4]; 40 ± 2° C./75 ± 5% RH, 2 month): BDRL | Any unspecified impurity ([4]; 40 ± 2° C./75 ± 5% RH, 2 month): BDRL | Description ([4]; 40 ± 2° C./75 ± 5% RH, 2 month): Slightly yellow | Solid form by XRD ([4]; 40 ± 2° C./75 ± 5% RH, 2 month): Complies | Total Impurities ([4]; 40 ± 2° C./75 ± 5% RH, 2 month): BDRL | 4-Ethyl analogue (Imp-5) ([4]; 40 ± 2° C./75 ± 5% RH, Initial): BDRL | Any unspecified impurity ([4]; 40 ± 2° C./75 ± 5% RH, Initial): BDRL | Description ([4]; 40 ± 2° C./75 ± 5% RH, Initial): Slightly yellow | Solid form by XRD ([4]; 40 ± 2° C./75 ± 5% RH, Initial): Complies | Total Impurities ([4]; 40 ± 2° C./75 ± 5% RH, Initial): BDRL | Polymorphic and chemical identity on storage ([4]; different storage conditions, at least up to two months): retained the same polymorphic and chemical identity | % Weight change ([5]; Adsorption, 10 % RH): 0.5405% | % Weight change ([5]; Adsorption, 20 % RH): 0.7918% | % Weight change ([5]; Adsorption, 30 % RH): 0.9954% | % Weight change ([5]; Adsorption, 40 % RH): 1.170% | % Weight change ([5]; Adsorption, 50 % RH): 1.350% | % Weight change ([5]; Adsorption, 60 % RH): 1.544% | % Weight change ([5]; Adsorption, 70 % RH): 1.904% | % Weight change ([5]; Adsorption, 80 % RH): 2.661% | % Weight change ([5]; Adsorption, 90 % RH): 5.414% | % Weight change ([5]; Desorption, 10 % RH): 1.303% | % Weight change ([5]; Desorption, 20 % RH): 1.751% | % Weight change ([5]; Desorption, 30 % RH): 2.098% | % Weight change ([5]; Desorption, 40 % RH): 2.855% | % Weight change ([5]; Desorption, 50 % RH): 4.190% | % Weight change ([5]; Desorption, 60 % RH): 4.453% | % Weight change ([5]; Desorption, 70 % RH): 4.875% | % Weight change ([5]; Desorption, 80 % RH): 5.134% | % Weight change ([5]; Desorption, 90 % RH): 5.414% | Water pick up ([5]; at 80% RH at RT): about 2.7% | Maximum absorption of water ([5]; at 90% RH): about 5.4% | Difference in water content between absorption and desorption ([5]; between 50% and 60% RH at room temperature): about 3% | Hygroscopicity ([5]; from water pick up at 80% RH at RT): moderately hygroscopic | Thermogravimetric (weight loss %) [2]: 1.6 (RT to 80°) % | Loss on drying ([2]; 30° C.-100° C.): 2.3% | Loss on drying ([2]; 100° C.-220° C.): 7.3% | Temperature up to which characteristic PXRD is retained [6]: about 140 °C
